Reference: patent US10254283B2, “Biomarker for MELK activity and methods of using same” (Dana-Farber Cancer Institute, Inc., priority 2013, dated 2019)
Entries after “also recorded” stand apart in the source; their conditions may differ.

What was measured:
[1] = system: phosphorylation of eIF4B at S406; experiment: Immunoblotting of eIF4B S406 phosphorylation in drug-treated mitotic cells; format: cell-based, human
Method: MDA-MB-468 cells stably expressing tetracycline-inducible (tet-on) small hairpin MELK (shMELK) in the presence or absence of doxycycline were harvested through treatment of nocodazole, and subjected to immunoblotting. […] Mitotic MDA-MB-468 cells were treated for 30 min with vehicle or 200 nM OTSSP167, a MELK inhibitor (Chung et al. (2012) Oncotarget 3:1629-1640). Lysates were used for immunoblotting.
(§1) For treatment with nocodazole, cells were refreshed with medium containing nocodazole (200 ng/ml). Twenty hours after treatment, floating mitotic cells were harvested by gental shake-off. For drug treatment, cells were seeded in multi-well plate, in the presence of OTSSP167 (ChemExpress, HY15512; 10 mM stock made in DMSO).
(§2) Cells were harvested and lysed with RIPA buffer (25 mM Tris, pH 7.4, 150 mM NaCl, 1% Nonidet P-40, 0.5% sodium deoxycholate, and 0.1% sodium dodecyl sulfate) supplemented with protease inhibitors cocktail (Roche) and phosphatase inhibitors cocktail (Thermo Scientific). Cleared lysates were analyzed for protein concentration using a BCA kit (Thermo Scientific). Equal amount of protein (10-20 μg) was resolved on SDS-PAGE, and was subsequently transferred onto a nitrocellulose or polyvinylidene difluoride membrane (Amersham). The membrane was blocked with 5% non-fat milk and was then incubated with primary antibodies overnight at 4° C. After washing, the membrane was incubated with fluorophore-conjugated secondary antibodies for 1 h at room temperature. The membrane was then washed and scanned with an Odyssey® Infrared scanner (Li-Cor Biosciences).
The following antibodies were used for immunoblotting or immunoprecipitation, MELK (Epitomics, 2916), p-eIF4B (S406) (Cell Signaling, 8151), p-eIF4B (S422) (Cell Signaling, 3591), eIF4B (Cell Signaling, 3592), c-Myc (Cell Signaling, 5605), XIAP (Cell Signaling, 2045), p-Akt (S473) (Cell Signaling, 4060), p-MAPK (T202/Y204) (Cell Signaling, 4370), cleaved PARP (Asp214) (Cell Signaling, 9541), Aurora A (Cell Signaling, 4718), Aurora B (Cell Signaling, 3094), p-Aurora A (T288)/Aurora B (T232)/Aurora C (T198) (Cell Signaling, 2914), p-Histone H3 (T3) (Cell Signaling, 13576), p-Histone H3 (S10) (Cell Signaling, 3377), p-Histone H3 (T11) (Cell Signaling, 9767), p-Histone H3 (S28) (Cell Signaling, 9713), ODC (Sigma, O1136), Vinculin (Sigma, V9131, alpha-tubulin (Sigma, T9016), anti-HA magnetic beads (Pierce, 88836), anti-Flag magnetic beads (Sigma, M8823). Secondary antibodies used were Alexa Fluor 680 goat anti-rabbit IgG (Invitrogen A-21109) and IRDye800-conjugated anti-mouse IgG (Rockland).

[2] = system: mitotic phosphorylation of Histone H3; experiment: Immunoblotting of mitotic Histone H3 phosphorylation in drug-treated cells; format: cell-based, human
Method: Mitotic cells were harvested through nocodazole-induced cell cycle arrest at prometaphase (200 ng/ml nocodazole, 20 hours). Cells were treated with the small chemical inhibitor of MELK, OTSSP167, for 30 min, at the indicated concentrations. Cell lysates were then prepared for immunoblotting.
as §1
as §2, with “The membrane was then washed and scanned with an Odyssey® Infrared scanner (Li-Cor Biosciences).” left out

[3] = target: T1, recombinant MELK (kinase domain) (Homo sapiens, UniProt Q14680); experiment: In vitro kinase assay, recombinant MELK (kinase domain) with recombinant Histone H3, immunoblotting; format: biochemical; conditions: 200 ng/ml final, 30 min at 30° C. (FIG. 12)
T1 construct: incubated without or with recombinant MELK (kinase domain) for 30 min. at 30° C
T1 sequence (Q14680 11-263 limits assumed): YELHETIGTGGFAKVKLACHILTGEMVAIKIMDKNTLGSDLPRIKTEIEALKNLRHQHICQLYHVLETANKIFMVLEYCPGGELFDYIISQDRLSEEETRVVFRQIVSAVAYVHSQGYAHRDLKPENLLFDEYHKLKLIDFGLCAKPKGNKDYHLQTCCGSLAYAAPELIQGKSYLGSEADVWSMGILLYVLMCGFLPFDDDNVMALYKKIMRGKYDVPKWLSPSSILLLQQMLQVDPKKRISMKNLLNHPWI
Method: Reactions were terminated by adding SDS sample buffer. Samples were subjected to immunoblotting using the indicated antibodies.
Flag-tagged eIF4B or Flag-eIF4B (S406A) was transfected into HEK293T cells (4 μg DNA for cells in one 60 mm dish). Thirty-six hours after transfection, cells were lysed with IP buffer (100 mM NaCl, 50 mM Tris, pH 7.5, 0.5% NP-40, 0.5% Sodium deoxycholate, supplemented with protease/phosphatase inhibitor cocktail). Lysates were cleared via incubating with anti-mouse IgG conjugated to magnetic beads (4° C., 30 min), and then immunoprecipitated with anti-Flag M2 magnetic beads (Sigma) (4° C., 120 min). The beads with bound antigens were washed 5 times with IP buffer. Beads during the last wash were aliquoted into 1.5 ml microcentrifuge tubes. After removal of IP buffer, the beads were washed once with 1× kinase buffer without ATP (5 mM Tris, pH 7.5, 5 mM-βglycerophosphate, 2 mM dithiothreitol, 0.1 mM Na3VO4, 10 mM MgCl2; Cell Signaling). After the wash, 40 μl 1× kinase buffer with 200 mM ATP was added to each tube, followed by 5 ul buffer without or with 500 ng recombinant MELK. The reaction was incubated at 30° C. for 30 min, and terminated by adding 40 ul 2×SDS sample buffer. The samples were then boiled and subjected to immunoblotting. […]

[4] = mitotic cells treated for 30 min, mTOR inhibitors versus MELK inhibitor (FIG. 6)

Row | SMILES | phosphorylation of eIF4B at S406 [1, 4] | phosphorylation of eIF4B at S406 ([1]; mitotic cells treated for 30 min, mTOR inhibitors versus MELK inhibitor (FIG. 6), listed as torins) | phosphorylation of Histone H3 at Thr3/Ser10/Thr11 ([2]; MDA-MB-468 cells (text cites FIG. 12)) | mitotic phosphorylation of Histone H3 at Thr-3, Ser-10 and Thr-11 ([2]; nocodazole-arrested mitotic cells, 30 min, indicated concentrations (FIG. 13)) | MELK-induced phosphorylation of Histone H3 at Ser 10 in vitro [3] | phosphorylation of eIF4B at S406 ([1]; mitotic MDA-MB-468 cells, 200 nM, 30 min, vs vehicle (FIG. 5 right panels))
1 | CCC(=O)N1CCN(c2ccc(-n3c(=O)ccc4cnc5ccc(-c6cnc7ccccc7c6)cc5c43)cc2C(F)(F)F)CC1 [Torin 1] | not mTOR inhibition | do not produce the same results | – | – | – | –
2 | CC(=O)c1cnc2ccc(-c3cc(Cl)c(O)c(Cl)c3)nc2c1N[C@H]1CC[C@H](CN(C)C)CC1 [OTSSP167] | suppressed the phosphorylation of eIF4B at S406 | – | reduced phosphorylation of Histone H3 at Thr3/Ser10/Thr11 | concentration-dependent reduction; also recorded: suppresses the mitotic phosphorylation of Histone H3 at Thr-3, Ser-10 and Thr-11 | suppresses MELK-induced phosphorylation of Histone H3 at Ser 10 | impairs the phosphorylation of eIF4B at S406
